Reference: PMC4208696 (Biophysical chemistry, 2014)
Where two headings read alike, the source gives them in different places.

Experiments:
[1] = target: CaM1–148 (full-length calmodulin) (Homo sapiens, UniProt P0DP23); assay type: binding, mammalian; conditions: for ΔG (calcium-saturated): 10 mM CaCl2; for ΔG (calcium-saturated) / ΔG (apo): free energy corresponding to estimated Kd, 22 °C; for Fold Change = (Kd, Apo)/(Kd, Ca^2+): apo vs calcium-saturated; for abundance of the apo CaM-peptide complex: calculated, start of calcium titration, 6 μM CaM1–148 with 2 eq (12 μM) peptide
CaM1–80, sites I and II = assay type: binding, mammalian; conditions: 2 eq peptide
[2] = tested on: CaM76–148, sites III and IV; assay type: binding, mammalian; conditions: for increase in calcium-binding affinity (more favorable than without peptide) / ΔΔG2^app = ΔG2^app(CaM + Peptide) − ΔG2 (CaM Alone): 2 eq peptide
[3] = tested on: CaM1–148, sites III and IV; assay type: binding, mammalian; conditions: for increase in calcium-binding affinity (more favorable than without peptide) / ΔΔG2^app = ΔG2^app(CaM + Peptide) − ΔG2 (CaM Alone): 2 eq peptide, sites III and IV; for effect of N-domain on calcium-binding affinity of the C-domain: CaM1–148 vs CaM76–148, with 2 eq peptide
CaM1–80 (CaM N-domain) = CaM1–80 (CaM N-domain) (Homo sapiens, UniProt P0DP23); assay type: binding, mammalian; conditions: for ΔG (calcium-saturated): 10 mM CaCl2; for ΔG (calcium-saturated) / ΔG (apo): free energy corresponding to estimated Kd, 22 °C; for Fold Change = (Kd, Apo)/(Kd, Ca^2+): apo vs calcium-saturated; for abundance of the apo CaM-peptide complex: calculated, start of calcium titration, 6 μM CaM1–80 with 2 eq (12 μM) peptide
CaM1–148, sites I and II = assay type: binding, mammalian; conditions: for increase in calcium-binding affinity (more favorable than without peptide) / ΔΔG2^app = ΔG2^app(CaM + Peptide) − ΔG2 (CaM Alone): 2 eq peptide, sites I and II
CaM76–148 (CaM C-domain) = CaM76–148 (CaM C-domain) (Homo sapiens, UniProt P0DP23); assay type: binding, mammalian; conditions: for ΔG (calcium-saturated): 10 mM CaCl2; for ΔG (calcium-saturated) / ΔG (apo): free energy corresponding to estimated Kd, 22 °C; for Fold Change = (Kd, Apo)/(Kd, Ca^2+): apo vs calcium-saturated; for abundance of the apo CaM-peptide complex: calculated, start of calcium titration, 6 μM CaM76–148 with 2 eq (12 μM) peptide
full-length CaM = conditions: absence of magnesium, ref [46]; cited from earlier work
[4] = CaM1–148 with 2 eq peptide (Fig. 5A)

Row | Substance | ΔG (calcium-saturated) [1] | Fold Change = (Kd, Apo)/(Kd, Ca^2+) [1] | ΔG (apo) [1] | abundance of the apo CaM-peptide complex [1] | increase in calcium-binding affinity (more favorable than without peptide) (CaM1–80, sites I and II) | ΔΔG2^app = ΔG2^app(CaM + Peptide) − ΔG2 (CaM Alone) (CaM1–80, sites I and II) | increase in calcium-binding affinity (more favorable than without peptide) [2] | ΔΔG2^app = ΔG2^app(CaM + Peptide) − ΔG2 (CaM Alone) [2] | increase in calcium-binding affinity (more favorable than without peptide) [3] | ΔΔG2^app = ΔG2^app(CaM + Peptide) − ΔG2 (CaM Alone) [3] | effect of N-domain on calcium-binding affinity of the C-domain [3] | ΔG (calcium-saturated) (CaM1–80 (CaM N-domain)) | Fold Change = (Kd, Apo)/(Kd, Ca^2+) (CaM1–80 (CaM N-domain)) | ΔG (apo) (CaM1–80 (CaM N-domain); apo) | abundance of the apo CaM-peptide complex (CaM1–80 (CaM N-domain)) | increase in calcium-binding affinity (more favorable than without peptide) (CaM1–148, sites I and II) | ΔΔG2^app = ΔG2^app(CaM + Peptide) − ΔG2 (CaM Alone) (CaM1–148, sites I and II) | ΔG (calcium-saturated) (CaM76–148 (CaM C-domain)) | Fold Change = (Kd, Apo)/(Kd, Ca^2+) (CaM76–148 (CaM C-domain)) | ΔG (apo) (CaM76–148 (CaM C-domain)) | also measured
1 | Ac-SRYGLLIKAFSMTAAETARRTREFR-NH2 [hRyR1(1975–1999)p] | -8.34 ± 0.01 kcal/mol | ~1300 | -4.14 kcal/mol | < 2% | 0.82 ± 0.15 kcal/mol | -0.82 kcal/mol | 0.69 ± 0.09 kcal/mol | -0.69 ± 0.09 kcal/mol | 1.09 ± 0.23 kcal/mol | -1.09 ± 0.23 kcal/mol | no significant effect | -6.62 ± 0.09 kcal/mol | ~600 | -2.91 kcal/mol | < 2% | 2.10 ± 0.29 kcal/mol | -2.10 kcal/mol | -6.80 ± 0.05 kcal/mol | ~70 | -4.30 kcal/mol | saturation of peptide (anisotropy) ([1]; calcium-saturated, at ~100 μM): greater than 85%; ΔΔG2^app = ΔG2^app(CaM + Peptide) − ΔG2 (CaM Alone) (CaM1–80, sites I and II; listed as 1975): -0.82 ± 0.15 kcal/mol; saturation of peptide (anisotropy) (CaM1–80 (CaM N-domain); calcium-saturated (10 mM CaCl2), at ~100 μM CaM1–80): greater than 85%; ΔΔG2^app = ΔG2^app(CaM + Peptide) − ΔG2 (CaM Alone) (CaM1–148, sites I and II; listed as 1975): -2.10 ± 0.29 kcal/mol; saturation of peptide (anisotropy) (CaM76–148 (CaM C-domain); calcium-saturated, at ~100 μM): greater than 85%; abundance of the apo CaM-peptide complex (CaM76–148 (CaM C-domain)): < 2%; interaction with apo calmodulin (ITC) in words (full-length CaM): failed to detect an interaction
2 | CaM76–148: CaM C-domain, encompassing residues 76 to 148 |  |  |  |  |  |  |  |  |  |  |  |  |  |  |  |  |  |  |  |  | ΔΔG2 (CaM76–148 vs CaM1–148) ([2]; CaM alone): 0.17 ± 0.04 kcal/mol
3 | Ac-KSKKAVWHKLLSKQRRRAVVACFRMTPLYN-NH2 [hRyR1(3614–3643)p] | -12.15 kcal/mol | ~7000 | -7.02 ± 0.25 kcal/mol | ~ 64% | 2.62 ± 0.11 kcal/mol | -2.62 ± 0.11 kcal/mol | 3.41 ± 0.14 kcal/mol | -3.41 ± 0.14 kcal/mol | 3.83 ± 0.14 kcal/mol | -3.83 ± 0.14 kcal/mol | no significant effect | -7.59 ± 0.22 kcal/mol | ~600 | -3.81 kcal/mol | ~ 1% | 3.78 ± 0.20 kcal/mol | -3.78 ± 0.18 kcal/mol | -10.80 kcal/mol | ~2500 | -6.22 ± 0.10 kcal/mol | Kd [1]: ≤ 1 nM; binding in words ([1]; apo (absence of calcium)): low micromolar Kd; binding in words ([1]; high calcium concentrations): sub-nanomolar Kd; midpoint of calcium titration, C-domain [3, 4]: ~ 100 nM; weaker binding of CaM1–80 than CaM1–148 and CaM76–148 (fold) (CaM1–80 (CaM N-domain); abstract, CaM1–80 required calcium): ~ 250 fold; affinity less favorable than that of apo CaM1–148 (factor) (CaM1–80 (CaM N-domain); apo): 220; calcium dependence of interaction in words (CaM1–80 (CaM N-domain); apo and calcium-saturated): requires calcium for association; affinity higher than for hRyR1(1975–1999)p (fold) (CaM1–80 (CaM N-domain); calcium-saturated N-domain): approximately 5 fold; ΔΔG (hRyR1(3614–3643)p − hRyR1(1975–1999)p) (CaM1–80 (CaM N-domain); calcium-saturated N-domain): -0.97 ± 0.24 kcal/mol; ΔΔG2^app = ΔG2^app(CaM + Peptide) − ΔG2 (CaM Alone) (CaM1–148, sites I and II; listed as 3614): -3.78 ± 0.20 kcal/mol; effect of the presence of the C-domain on calcium-binding free energy of sites I and II (more favorable by) (CaM1–148, sites I and II; CaM1–148 vs CaM1–80, with 2 eq peptide): 1.16 ± 0.25 kcal/mol; midpoint of calcium titration, N-domain (CaM1–148, sites I and II; [4]): ~ 1 μM; Kd (CaM76–148 (CaM C-domain)): ≤ 10 nM; binds (Ca^2+)2-CaMC more favorably than apo CaMC (CaM76–148 (CaM C-domain); (Ca^2+)2-CaMC vs apo CaMC): ~ 5 kcal/mol; calcium dependence of interaction in words (CaM76–148 (CaM C-domain); apo and calcium-saturated): calcium-independent manner; C-domain fragment affinity more favorable than N-domain fragment (CaM76–148 (CaM C-domain); both in the presence and in the absence of calcium): 2 orders of magnitude; ΔΔG (hRyR1(3614–3643)p − hRyR1(1975–1999)p) (CaM76–148 (CaM C-domain); calcium-saturated C-domain): ≤ -4.00 kcal/mol; abundance of the apo CaM-peptide complex (CaM76–148 (CaM C-domain)): ~ 33%
